For assay [1], the system named is compound 48/80-induced lethality. Put plainly: Protection of rats from compound 48/80-induced lethality. The class given is in vivo, rats of an inbred Wistar strain. The note with it: Rattus norvegicus, 4 h, read-out: Compound 48/80 lethality test in rats ED50, s.c. or p.o. 1 h before compound 48/80 0.5 mg/kg i.v.; protection of 50% of animals, survival after 4 hours. The method in brief: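 Male inbred Wistar rats (240-260 g), starved overnight, dosed subcutaneously or orally with compound or 0.9% NaCl before compound 48/80 challenge. Survival at 4 hours counted as protection. ED50 in mg/kg is the dose protecting 50% of animals from lethality.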

For the next assay, the system named is effects of serotonin. Description: Antagonistic activity on the effects of serotonin in the gastric lesion test (lesions induced by compound 48/80). The class given is in vivo, rats of a Wistar inbred strain. The note with it: Rattus norvegicus, po, read-out: gastric lesion test ED50. The method in brief: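 Fasted male Wistar rats (220–250 g) dosed orally with compound; 1 h later 2.5 mg/kg s.c. H1 antagonist, then compound 48/80 i.v. Stomachs examined 4 h afterwards for distension and glandular lesions (scored 0 to +++); ED50 is the oral dose (mg/kg) abolishing both in 50% of rats.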

Where [2] appears, read: compound 48/80 1 mg/kg i.v., distension and lesions of stomach completely absent in 50% of rats.

Molecules are shown by their SMILES. Like-named read-outs stand apart in the source and are kept apart here.

Regarding `Fc1ccc(Cn2c(CC3CCN(CCNc4ncccn4)CC3)nc3ncccc32)cc1` [Compound 348, N-[2-[4[[1-[(4-fluorophenyl)methyl]-1H-imidazo[4,5-b]pyridin-2-yl]methyl]-1-piperidinyl]ethyl]-2-pyrimidinamine], the ED50 (in assay [1]; with effects of serotonin) was 0.04 mg/kg each time.
For `COc1ccc(CCN2CCC(Cc3nc4cccnc4n3Cc3ccco3)CC2)cc1` [Compound 189], the results for the ED50 (in assay [1]; in the assay on effects of serotonin (setting [2])) were 0.02 mg/kg and 0.63 mg/kg, respectively.
`Nc1ccccc1C(=O)NCCN1CCC(Cc2nc3ccncc3n2Cc2ccc(F)cc2)CC1` [Compound 477, 2-amino-N-[2-[4-[[3-[(4-fluorophenyl)methyl]-3H-imidazo[4,5-c]pyridin-2-yl]-methyl]-1-piperidinyl]-ethyl]benzamide]: the ED50 in assay [1] was found to be 0.02 mg/kg; in the assay with effects of serotonin (setting [2]), 0.63 mg/kg.
In the case of `CCOC(=O)c1csc(NCCN2CCC(Cc3nc4ccccc4n3Cc3ccc(F)cc3)CC2)n1` [Compound 455, ethyl 2-[(2-[4-[(1-[(4-fluorophenyl)methyl]-1H-benzimidazol-2-yl]methyl]-1-piperidinyl]ethyl]amino]-4-thiazolecarboxylate], the results for the ED50 (in assay [1]; in the assay on effects of serotonin (setting [2])) were 0.04 mg/kg and 0.63 mg/kg, respectively.
As for `c1cnc(NCCN2CCC(Cc3nc4ccccc4n3Cc3ccco3)CC2)nc1` [Compound 334], the results for the ED50 (in assay [1]; in the assay with effects of serotonin (setting [2])) were 0.005 mg/kg and 0.31 mg/kg, respectively.
For `Cc1nc2c(NCCN3CCC(Cc4nc5ccccc5n4Cc4ccc(F)cc4)CC3)ncnc2n1C` [Compound 372], in that order: 0.04 mg/kg and 0.16 mg/kg.
In the case of `O=c1[nH]c2ccccc2c(=O)n1CCN1CCC(Cc2nc3ccccc3n2Cc2ccco2)CC1` [Compound 208], the values for the ED50 (in assay [1]; with effects of serotonin) were 0.04 mg/kg and 0.08 mg/kg, respectively.
Regarding `O=c1[nH]c2ccccc2c(=O)n1CCN1CCC(Cc2nc3cccnc3n2Cc2ccc(F)cc2)CC1` [Compound 224], the figures for the ED50 (in assay [1]; in the assay with effects of serotonin) were 0.04 mg/kg and 0.08 mg/kg, respectively.
On to `c1coc(Cn2c(CC3CCN(CCNc4nccs4)CC3)nc3ccccc32)c1` [Compound 335], for which the ED50 came out at 0.02 mg/kg in assay [1] and 0.16 mg/kg in the assay on effects of serotonin (setting [2]).
As to `COc1ccc(CCN2CCC(Cc3nc4cccnc4n3Cc3cccs3)CC2)cc1` [Compound 238], the values for the ED50 (in assay [1]; in the assay on effects of serotonin (setting [2])) were 0.08 mg/kg and 0.63 mg/kg, respectively.
Regarding `CN(C)C(=O)NCCN1CCC(Cc2nc3cccnc3n2Cc2ccc(F)cc2)CC1` [Compound 448, N'-[2-[4-[[3-[(4-fluorophenyl)methyl]-3H-imidazo[4,5-b]pyridin-2-yl]methyl]-1-piperidinyl]ethyl]-N,N-dimethylurea], the ED50 is 0.08 mg/kg in assay [1] and 0.16 mg/kg in the assay with effects of serotonin (setting [2]).
For `COc1ncccc1C(=O)NCCN1CCC(Cc2nc3ccccc3n2Cc2ccc(F)cc2)CC1` [Compound 438, N-[2-[4-[[1-[(4-fluorophenyl)methyl]-1H-benzimidazol-2-yl]methyl]-1-piperidinyl]ethyl]-2-methoxy-3-pyridinecarboxamide], in that order: 0.08 mg/kg and 0.16 mg/kg.
For the molecule `CC(=O)CCN1CCC(Cc2nc3ccccc3n2Cc2ccc(F)cc2)CC1` [Compound 102, 4-[4-[[1-[(4-fluorophenyl)methyl]-1H-benzimidazol-2-yl]methyl]-1-piperidinyl]-2-butanone], the figures for the ED50 (in assay [1]; with effects of serotonin (setting [2])) were 0.02 mg/kg and 0.31 mg/kg, respectively.
For the molecule `Cc1nc2n(c(=O)c1CCN1CCC(Cc3nc4cccnc4n3Cc3ccco3)CC1)CCS2` [Compound 168], the ED50 in assay [1] stood at 0.04 mg/kg; with effects of serotonin (setting [2]) it was 0.63 mg/kg.
As to `CN1CCC(Cc2nc3cccnc3n2Cc2ccc(F)cc2)CC1` [Compound 90], the ED50 in assay [1] was found to be 0.01 mg/kg; in the assay with effects of serotonin (setting [2]), 0.31 mg/kg.
Consider `O=c1[nH]c2ccccc2c(=O)n1CCN1CCC(Cc2nc3ccccc3n2Cc2cccs2)CC1` [Compound 186], for which the ED50 came to 0.04 mg/kg in assay [1] and 0.31 mg/kg in the assay with effects of serotonin (setting [2]).

Source of the values: US4839374A, “4-((Bicyclic heterocyclyl)-methyl and -hetero)-piperidines” (Janssen Pharmaceutica, N.V., priority 1987, dated 1989).
